Consider eight compounds from US5610154A, “Bicyclic carboxamides” (John Wyeth & Brother, Ltd., priority 1994, dated 1997).

For the assay, the target named is T1, 5-HT1A receptor (Rattus norvegicus, UniProt P19327).
T1 construct: rat hippocampal membrane homogenate; from tissue; host or cells: rat hippocampus, membrane homogenate
T1 sequence (P19327 1-422): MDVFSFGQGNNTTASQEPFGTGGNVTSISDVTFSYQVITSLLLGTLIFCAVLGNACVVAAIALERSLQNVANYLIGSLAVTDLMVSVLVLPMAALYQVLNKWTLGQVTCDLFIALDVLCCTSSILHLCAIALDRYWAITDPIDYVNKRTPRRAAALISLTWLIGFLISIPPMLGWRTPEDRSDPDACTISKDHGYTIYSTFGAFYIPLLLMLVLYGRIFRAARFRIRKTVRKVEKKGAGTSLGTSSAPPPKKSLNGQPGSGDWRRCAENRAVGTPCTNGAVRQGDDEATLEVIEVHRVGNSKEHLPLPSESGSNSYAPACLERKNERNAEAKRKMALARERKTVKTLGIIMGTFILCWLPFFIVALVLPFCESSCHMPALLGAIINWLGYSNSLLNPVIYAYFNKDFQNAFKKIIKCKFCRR
The experiment in a line: 5-HT1A receptor binding activity in rat hippocampal membrane homogenate (method of B. S. Alexander and M. D. Wood). The procedure:
The compounds of the invention are tested for 5-HT1A receptor binding activity in rat hippocampal membrane homogenate by the method of B. S. Alexander and M. D. Wood, J. Pharm. Pharmacol., 1988, 40, 888-891.
`COc1ccccc1N1CCN(CCC(C(=O)N2C3CCCC2CC3)c2ccccc2)CC1` (centres unmarked) [Example 1, 1-(8-Aza-bicyclo[3.2.1]oct-8-yl)-4-[4-(2-methoxy-phenyl)-piperazin-1-yl]-2-phenyl-butan-1-one]: the IC50 was 3.3 nM. That is a single-digit nanomolar value. Under `COc1ccc(F)cc1N1CCN(CCC(C(=O)N2C3CCCC2CC3)c2ccccc2)CC1` (centres unmarked) [Example 2, 1-(8-Aza-bicyclo[3.2.1]oct-8-yl)-4-[4-(5-fluoro-2-methoxy-phenyl)-piperazin-1-yl]-2-phenyl-butan-1-one] stands 1.48 nM. As for `O=C(C(CCN1CCN(c2cccc3[nH]ccc23)CC1)c1ccccc1)N1C2CCCC1CC2` (centres unmarked) [Example 5, 1-(8-Aza-bicyclo[3.2.1]oct-8-yl)-4-[4-(1H-indol-4-yl)-piperazin-1-yl]-2-phenyl-butan-1-one], the IC50 is 3.73 nM. For `O=C(C(CCN1CCN(c2ccccn2)CC1)c1ccccc1)N1C2CCCC1CC2` (centres unmarked) [Example 8, 1-(8-Aza-bicyclo[3.2.1]oct-8-yl)-2-phenyl-4-[4-(pyridin-2-yl)-piperazin-1-yl]-butan-1-one], the 50% inhibitory concentration (IC50) amounted to 3.5 nM. The value for `O=C(C(CCN1CCN(c2ncccc2C(F)(F)F)CC1)c1ccccc1)N1C2CCCC1CC2` (centres unmarked) [Example 10] was 17.9 nM. `O=C(C(CCN1CCN(c2cccc3[nH]ccc23)CC1)c1ccccc1)N1CC2CCC(CC2)C1` (centres unmarked) [Example 14, 1-(3-Aza-bicyclo[3.2.2]non-3-yl)-4-[4-(1H-indol-4-yl)-piperazin-1-yl]-2-phenylbutan-1-one] yielded an IC50 of 1.96 nM.

For `COc1ccccc1N1CCN(CCC(C(=O)N2CC3CCC(CC3)C2)c2ccccc2)CC1` (centres unmarked) [Example 15], the IC50 is 0.58 nM. The value for `COc1ccccc1N1CCN(CCC(C(=O)N2CC3CC=CCC3C2)c2ccccc2)CC1` (centres unmarked) [Example 16, 1-(1,3,3a,4,7,7a-Hexahydroisoindol-2-yl)-4-[4-(2-methoxyphenyl)piperazin-1-yl]-2-phenylbutan-1-one] was 4.46 nM.

Usually IC50 stands for the point on the concentration scale where inhibition reaches its midpoint. Higher therefore signals a need for much substance.
